These results are taken from ChEMBL document CHEMBL4387773, “Identification of potent, selective and orally bioavailable phenyl ((R)-3-phenylpyrrolidin-3-yl)sulfone analogues as RORγt inverse agonists” (Bioorg Med Chem Lett, 2019).

The target in data set [1] is T1, Nuclear receptor subfamily 1 group I member 2 (Homo sapiens, UniProt O75469).
T1 sequence (O75469 whole entry): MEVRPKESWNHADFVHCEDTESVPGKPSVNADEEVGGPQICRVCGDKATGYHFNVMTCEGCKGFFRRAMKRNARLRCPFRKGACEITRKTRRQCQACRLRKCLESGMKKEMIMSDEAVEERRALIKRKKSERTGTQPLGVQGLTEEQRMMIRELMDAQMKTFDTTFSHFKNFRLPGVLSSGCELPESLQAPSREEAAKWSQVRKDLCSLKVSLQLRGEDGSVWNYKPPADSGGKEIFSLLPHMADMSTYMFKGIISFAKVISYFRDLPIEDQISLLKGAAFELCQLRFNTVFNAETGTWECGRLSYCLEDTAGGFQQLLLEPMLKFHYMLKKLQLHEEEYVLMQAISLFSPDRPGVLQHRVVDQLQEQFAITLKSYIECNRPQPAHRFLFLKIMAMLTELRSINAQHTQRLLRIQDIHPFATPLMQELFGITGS
Put plainly: Transactivation of PXR (unknown origin) expressed in human HepG2 cells. Format: cell-based.

The target in a further data set is T2, PXR (Homo sapiens, UniProt O75469).
T2 sequence (O75469 whole entry): T1 sequence (O75469 whole entry)
The data set is described as follows: Transactivation of PXR (unknown origin) expressed in human HepG2 cells assessed as maximum receptor activation response relative to control. Type of data set: cell-based. The note with it: human HepG2 cells that express PXR, read-out: %max.

A short description of data set [2]: Stability in mouse liver microsomes assessed as parent compound remaining after 10 mins. Format: ADME, Microsome. As to conditions: liver microsomes, read-out: Stability. (In general: Liver microsomes are vesicles of endoplasmic reticulum, rich in cytochrome P450 enzymes.)
Data set [3] concerns the target T3, Nuclear receptor ROR-alpha (Homo sapiens, UniProt P35398).
T3 sequence (P35398 whole entry): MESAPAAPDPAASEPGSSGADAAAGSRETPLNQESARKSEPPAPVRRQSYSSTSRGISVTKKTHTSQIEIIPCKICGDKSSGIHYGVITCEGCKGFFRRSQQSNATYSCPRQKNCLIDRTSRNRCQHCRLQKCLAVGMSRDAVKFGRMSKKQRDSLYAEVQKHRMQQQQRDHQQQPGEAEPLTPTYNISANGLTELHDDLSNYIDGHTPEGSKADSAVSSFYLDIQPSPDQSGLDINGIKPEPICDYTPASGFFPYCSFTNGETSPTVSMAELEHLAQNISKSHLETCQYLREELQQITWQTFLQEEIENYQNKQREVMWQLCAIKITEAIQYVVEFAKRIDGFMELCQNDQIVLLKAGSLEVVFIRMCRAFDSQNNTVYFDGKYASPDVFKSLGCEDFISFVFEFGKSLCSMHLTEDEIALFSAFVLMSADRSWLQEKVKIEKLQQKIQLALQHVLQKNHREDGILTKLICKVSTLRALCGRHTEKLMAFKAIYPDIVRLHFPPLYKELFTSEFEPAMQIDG
The data set is described as follows: Inverse agonist activity at human Gal4-fused RORalpha LBD (272 to 556 residues) expressed in human Jurkat cells measured after 18 hrs by steady-glo luciferase reporter gene assay. Type of data set: cell-based. (In general: In a reporter assay the amount or activity of a reporter protein is the signal.)

Data set [4] deals with T4, Oxysterols receptor LXR-alpha (Homo sapiens, UniProt Q13133).
T4 sequence (Q13133 whole entry): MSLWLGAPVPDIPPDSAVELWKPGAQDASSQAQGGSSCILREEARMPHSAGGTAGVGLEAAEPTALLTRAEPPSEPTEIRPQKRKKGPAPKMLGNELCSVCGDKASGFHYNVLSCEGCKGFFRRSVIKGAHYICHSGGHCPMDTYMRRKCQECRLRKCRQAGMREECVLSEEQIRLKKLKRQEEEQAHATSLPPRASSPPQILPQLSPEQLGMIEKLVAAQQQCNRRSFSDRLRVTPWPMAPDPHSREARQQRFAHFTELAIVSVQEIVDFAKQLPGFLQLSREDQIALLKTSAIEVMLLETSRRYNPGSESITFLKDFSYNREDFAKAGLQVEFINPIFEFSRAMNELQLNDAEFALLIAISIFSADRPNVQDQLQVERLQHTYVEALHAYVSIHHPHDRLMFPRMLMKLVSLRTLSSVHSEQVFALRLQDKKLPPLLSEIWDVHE
Put plainly: Transactivation of human GAL4-fused LXRalpha expressed in African green monkey CV1 cells. Format: cell-based.

Data set [5] concerns the target T5, Oxysterols receptor LXR-beta (Homo sapiens, UniProt P55055).
T5 sequence (P55055 whole entry): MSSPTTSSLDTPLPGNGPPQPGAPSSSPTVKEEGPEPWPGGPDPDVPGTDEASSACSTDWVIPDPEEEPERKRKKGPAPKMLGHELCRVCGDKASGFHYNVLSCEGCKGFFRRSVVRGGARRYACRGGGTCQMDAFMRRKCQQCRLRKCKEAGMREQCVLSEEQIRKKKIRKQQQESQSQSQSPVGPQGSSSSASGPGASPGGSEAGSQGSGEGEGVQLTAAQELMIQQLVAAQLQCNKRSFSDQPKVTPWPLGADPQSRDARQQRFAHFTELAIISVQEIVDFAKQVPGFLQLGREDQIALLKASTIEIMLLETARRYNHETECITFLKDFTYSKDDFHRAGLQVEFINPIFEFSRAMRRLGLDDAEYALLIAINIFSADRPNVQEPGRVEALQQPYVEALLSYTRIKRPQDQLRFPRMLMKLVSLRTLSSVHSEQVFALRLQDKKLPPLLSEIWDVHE
The data set is described as follows: Transactivation of human GAL4-fused LXRbeta expressed in African green monkey CV1 cells. Type of data set: cell-based.

Data set [6] is described as follows: Half life in human liver microsomes. Format: ADME, Microsome.
A short description of data set [7]: Half life in rat liver microsomes. Format: ADME, Microsome.
Data set [8] is described as follows: Half life in mouse liver microsomes. Type of data set: ADME, Microsome.
For a further data set, the target named is T6, Cytochrome P450 2B6 (Homo sapiens, UniProt P20813).
T6 sequence (P20813 whole entry): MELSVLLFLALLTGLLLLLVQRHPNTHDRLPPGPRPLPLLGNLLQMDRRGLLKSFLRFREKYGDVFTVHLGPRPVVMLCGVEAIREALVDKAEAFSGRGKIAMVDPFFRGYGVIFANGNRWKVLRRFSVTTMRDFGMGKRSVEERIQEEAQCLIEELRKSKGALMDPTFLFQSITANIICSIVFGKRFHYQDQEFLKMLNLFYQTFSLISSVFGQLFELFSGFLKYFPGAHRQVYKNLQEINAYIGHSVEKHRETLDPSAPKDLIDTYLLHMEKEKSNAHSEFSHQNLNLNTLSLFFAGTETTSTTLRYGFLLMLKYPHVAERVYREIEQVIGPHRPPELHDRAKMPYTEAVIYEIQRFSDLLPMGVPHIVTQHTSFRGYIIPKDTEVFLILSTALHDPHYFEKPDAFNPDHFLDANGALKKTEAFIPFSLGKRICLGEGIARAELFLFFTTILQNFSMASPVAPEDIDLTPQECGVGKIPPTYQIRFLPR
The data set is described as follows: Inhibition of CYP2B6 (unknown origin). Format: ADME.

A further data set concerns the target Cytochrome P450 2C19 (Homo sapiens, UniProt P33261). Put plainly: Inhibition of CYP2C19 (unknown origin). Type of data set: ADME.
A further data set addresses Cytochrome P450 2D6 (Homo sapiens, UniProt P10635). Put plainly: Inhibition of CYP2D6 (unknown origin). Type of data set: ADME.
Another data set has as its target Cytochrome P450 3A4 (Homo sapiens, UniProt P08684). The data set is described as follows: Inhibition of CYP3A4 (unknown origin). Format: ADME.
Data set [9] is described as follows: Cmax in Balb/c mouse at 10 mg/kg, po. Type of data set: ADME, organism-based. On the set-up: dose 10 mg/kg, route oral. The note with it: in vivo.
Data set [10] is described as follows: AUC in Balb/c mouse at 10 mg/kg, po. Type of data set: ADME, organism-based. As to conditions: in vivo.

Where only a bound is given, the exact number is not on record here.

Cytochrome P450 3A4, sequence (P08684 whole entry): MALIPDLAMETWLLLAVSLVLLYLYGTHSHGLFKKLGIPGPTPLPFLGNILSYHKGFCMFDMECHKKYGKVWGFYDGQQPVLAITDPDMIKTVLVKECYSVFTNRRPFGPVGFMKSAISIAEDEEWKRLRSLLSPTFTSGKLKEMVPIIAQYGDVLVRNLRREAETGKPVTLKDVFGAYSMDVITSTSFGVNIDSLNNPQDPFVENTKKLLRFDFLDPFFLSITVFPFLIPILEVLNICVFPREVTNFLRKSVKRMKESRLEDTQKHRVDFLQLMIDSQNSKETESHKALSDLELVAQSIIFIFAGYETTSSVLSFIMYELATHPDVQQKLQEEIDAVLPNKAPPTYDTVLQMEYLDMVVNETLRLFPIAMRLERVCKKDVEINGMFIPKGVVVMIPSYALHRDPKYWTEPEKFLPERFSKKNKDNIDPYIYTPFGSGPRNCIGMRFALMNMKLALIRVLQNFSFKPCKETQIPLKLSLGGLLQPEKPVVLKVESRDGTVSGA
Cytochrome P450 2C19, sequence (P33261 whole entry): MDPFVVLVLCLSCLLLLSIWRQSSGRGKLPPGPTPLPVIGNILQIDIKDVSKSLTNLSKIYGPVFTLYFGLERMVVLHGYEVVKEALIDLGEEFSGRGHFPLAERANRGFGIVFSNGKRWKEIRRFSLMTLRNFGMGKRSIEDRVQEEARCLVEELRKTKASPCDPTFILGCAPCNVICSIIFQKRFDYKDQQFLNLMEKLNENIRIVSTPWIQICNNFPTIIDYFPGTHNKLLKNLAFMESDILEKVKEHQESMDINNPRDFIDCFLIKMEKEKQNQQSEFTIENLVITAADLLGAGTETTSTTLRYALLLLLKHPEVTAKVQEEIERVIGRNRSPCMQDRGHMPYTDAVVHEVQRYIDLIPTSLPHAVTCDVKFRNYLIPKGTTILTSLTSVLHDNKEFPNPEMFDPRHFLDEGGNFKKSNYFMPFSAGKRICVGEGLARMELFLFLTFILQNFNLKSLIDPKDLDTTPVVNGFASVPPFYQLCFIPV
Cytochrome P450 2D6, sequence (P10635 whole entry): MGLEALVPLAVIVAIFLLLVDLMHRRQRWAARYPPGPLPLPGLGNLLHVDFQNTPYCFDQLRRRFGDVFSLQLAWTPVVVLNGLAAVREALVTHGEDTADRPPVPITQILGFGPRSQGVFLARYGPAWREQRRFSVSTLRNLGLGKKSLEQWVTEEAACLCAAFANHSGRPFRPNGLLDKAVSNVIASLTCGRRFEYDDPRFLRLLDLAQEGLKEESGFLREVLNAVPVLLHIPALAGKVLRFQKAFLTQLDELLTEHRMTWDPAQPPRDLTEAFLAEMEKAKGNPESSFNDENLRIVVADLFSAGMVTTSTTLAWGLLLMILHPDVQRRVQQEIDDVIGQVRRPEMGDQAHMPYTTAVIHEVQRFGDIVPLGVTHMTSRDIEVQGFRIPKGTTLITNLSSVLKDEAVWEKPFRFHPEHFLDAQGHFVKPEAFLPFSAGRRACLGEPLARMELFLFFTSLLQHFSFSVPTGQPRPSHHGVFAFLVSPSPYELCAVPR

On to `O=C(O)C12CCC(C(=O)N3CC[C@](c4ccc(C(F)(C(F)(F)F)C(F)(F)F)cc4)(S(=O)(=O)c4ccc(F)cc4)C3)(CC1)CC2`, for which the half-maximal effective concentration (EC50) (commonly the concentration at which the effect is half-maximal) is greater than 50 µM in [1], greater than 40 µM in data set [3], greater than 7.5 µM in data set [4] and greater than 7.5 µM in [5]. Moreover, on PXR, the Emax stood at 6%. Also, in data set [2], the remaining at 10 min was 73%. In addition, the half-life in data set [6], in data set [7] and in data set [8] was greater than 2 h each time. For the same compound, the IC50 against Cytochrome P450 2B6, on Cytochrome P450 2C19, at Cytochrome P450 2D6 and against Cytochrome P450 3A4 was greater than 10 µM each time. The peak level in [9] (Cmax) was 6.7 µM. The AUC (as a rule, concentration integrated over time) in data set [10] came to 24 µM·h.

Turning to `CC[C@]1(C(=O)N2CC[C@](c3ccc(C(F)(C(F)(F)F)C(F)(F)F)cc3)(S(=O)(=O)c3ccc(F)cc3)C2)CC[C@H](C(=O)O)CC1`, the EC50 in data set [1] is greater than 50 µM; in [3], greater than 40 µM; in [4], greater than 7.5 µM; in data set [5] it was greater than 7.5 µM. Besides, the Emax on PXR was determined as 6%. Also, the remaining at 10 min in data set [2] turned out to be 83%. In addition, the half-life in [6], in data set [7] and in data set [8] was greater than 2 h in each case. Moreover, the IC50 against Cytochrome P450 2B6, against Cytochrome P450 2C19, against Cytochrome P450 2D6 and against Cytochrome P450 3A4 was greater than 10 µM throughout. Besides, the Cmax (as a rule, the highest concentration seen after dosing) in data set [9] turned out to be 3.7 µM. This compound had an AUC in data set [10] of 16.6 µM·h.
